Assay results taken from patent publication US9408393B2, “Bismuth-thiols as antiseptics for agricultural, industrial and other uses” (Microbion Corporation, priority 2010, dated 2016).
Read-outs that look alike come from different tables or passages of the source.

Assays:
[1] = tested on: S. epidermidis S2400-1 biofilm; assay: Biofilm prevention, BisEDT-antibiotic combinations; type: cell-based, Staphylococcus epidermidis; conditions: for Δ (0.05 BE), biofilm prevention: 0.05 μg/ml BisEDT
Experimental: (§1) S. epidermidis grown in TSB+2% glucose in polystyrene plates for 48 h at 37° C. Gatifloxacin (GF), clindamycin (CM), minocycline (MC), gentamicin (GM), vancomycin (VM), cefazolin (CZ), nafcillin (NC), and rifampicin (RP). […]

S. epidermidis biofilm = assay: Biofilm prevention concentration (BPC), BisEDT and antibiotics; type: cell-based, Staphylococcus epidermidis; conditions: for Change of biofilm prevention concentration (BPC): 0.05 μg/ml BisEDT
Experimental: as §1

S. epidermidis [2] = assay: Broth dilution MIC/MBC, BT-antibiotic combinations; type: cell-based, Staphylococcus epidermidis; conditions: for Δ, MIC / Δ (0.05 BE), MIC: 0.05 μg/ml BisEDT; for Δ (0.1 BE), MBC: 0.1 μg/ml BisEDT
Experimental: (§2) Materials & Methods. Susceptibility studies were performed by broth dilution in 96-well tissue culture plates (Nalge Nunc International, Denmark) in accordance with NCCLS protocols (National Committee for Clinical Laboratory Standards. (1997). Methods for Dilution Antimicrobial Susceptibility Tests for Bacteria that Grow Aerobically: Approved Standard M7-A2 and Informational Supplement M100-S10. NCCLS, Wayne, Pa., USA).
(§3) Briefly, overnight bacterial cultures were used to prepare 0.5 McFarland standard suspensions, which were further diluted 1:50 (˜2×10^6 cfu/mL) in cation-adjusted Mueller-Hinton broth medium (BBL, Cockeysville, Md., USA). BTs (prepared as described above) and antibiotics were added at incremental concentrations, keeping the final volume constant at 0.2 mL. Cultures were incubated for 24 h at 37° C. and turbidity was assessed by absorption at 630 nm using an ELISA plate reader (Biotek Instruments, Winooski, Vt., USA) according to the manufacturer's recommendations. […] Viable bacterial counts (cfu/mL) were determined by standard plating on nutrient agar.
(§4) The checkerboard method was used to assess the activity of antimicrobial combinations. The fractional inhibitory concentration index (FICI) and the fractional bactericidal concentration index (FBCI) were calculated, according to Eliopoulos et al. (Eliopoulos and Moellering, (1996) Antimicrobial combinations. In Antibiotics in Laboratory Medicine (Lorian, V., Ed.), pp. 330-96, Williams and Wilkins, Baltimore, Md., USA). Synergy was defined as an FICI or FBCI index of […], no interaction at >0.5-4 and antagonism at >4 (Odds, F C (2003) Synergy, antagonism, and what the chequerboard puts between them. Journal of Antimicrobial Chemotherapy 52:1). Synergy was also defined conventionally as ≧4-fold decrease in antibiotic concentration.

MRSA = assay: Combination MIC study, nafcillin or gentamicin + BisEDT, TSB with 2% glucose; type: cell-based, Staphylococcus aureus; conditions: for Fold reduction of antibiotic MIC90 by BisEDT: BisEDT 0.2 μg/ml; for FIC: antibiotic combined with BisEDT 0.2 μg/ml
Description: BTs reversed the resistance of all four gentamicin-resistant isolates tested to clinically relevant concentrations [Domenico et al., 2002]. The MICs for these antimicrobial agents was reduced substantially, especially for gentamicin.

S. epidermidis [3] = assay: Growth inhibition (MIC) and MBC, BisEDT and antibiotics; type: cell-based, Staphylococcus epidermidis
Description: Results are expressed as the mean change in MIC (dilution steps) with increasing BisEDT (n=3). See legend in FIG. 5 for antibiotic definitions.
The MIC change was most pronounced for clindamycin and gentamicin, followed by vancomycin, cefazolin, minocycline, gatifloxacin and nafcillin, with rifampicin unaffected.
Minimum bactericidal concentration (MBC) for most antibiotics tested against S. epidermidis decreased slightly with subMIC BisEDT. […] Clindamycin is a bacteriostatic agent, which explains its lack of bactericidal activity. Cefazolin resistance was reversed with respect to the MBC [Domenico et al., 2003]. These effects were additive.

S. aureus = assay: Broth dilution MIC/MBC, BT-antibiotic combinations; type: cell-based, Staphylococcus aureus; conditions: for MIC: Staphylococcus aureus
Experimental: as §2, §3, §4

[4] = tested on: S. epidermidis (methicillin-susceptible and methicillin-resistant); assay: Graft infection rat model, quantitative graft culture; type: in vivo; conditions: rats, s.c. Dacron graft, explanted at 7 days, 0.1 mg/l BTs, 10 mg/l RIP, 10 mg/l rifampin
Experimental: As summarized in Table 21, implants impregnated with 0.1 μg/ml BisEDT, 10 μg/ml RIP and 10 μg/ml rifampin, alone or combined were implanted s.c. into rats. Physiological solution (1 ml) containing the MS and MR strains at 2×10^7 cfu/ml was inoculated onto the graft surface using a tuberculin syringe. All grafts were explanted at 7 days following implantation and sonicated for 5 minutes in sterile saline solution to remove the adherent bacteria. Quantitation of viable bacteria was obtained by culturing dilutions on blood agar plates. The limit of detection was approximately 10 cfu/cm^2.

[5] = tested on: MRSA clinical isolates biofilm; assay: Biofilm-prevention concentration (BPC) in BHIG/X medium with subMIC BisEDT; type: cell-based, Staphylococcus aureus; conditions: 12 MRSA clinical isolates, mean ± SD
Experimental: (§5) Broth dilution antimicrobial susceptibility studies were performed against 12 MRSA strains using several antibiotics combined with subMIC levels of BisEDT (Table 18). Both the biofilm-prevention concentration (BPC) and the minimum inhibitory concentration (MIC) were determined in a special biofilm culture medium (BHIG/X). […] These strains were already sensitive to vancomycin, but were made considerably moreso in the presence of subMIC BisEDT.

[6] = tested on: lawn of MRSA (Methicillin-resistant S. aureus); assay: Antibiotic-soaked discs on bacterial lawn with and without BisEDT; type: cell-based, Staphylococcus aureus; conditions: antibiotic discs combined with BisEDT 0.05 μg/ml
Experimental: FIGS. 4A and 4B show the subinhibitory BisEDT reversing antibiotic-resistance to several antibiotics. Effects of antibiotics with and without BisEDT (0.05 μg/ml) on a lawn of MRSA (Methicillin-resistant S. aureus) is shown. […] [GM=gentamicin, CZ=cefazolin, FEP=cefepime, IPM=imipenim, SAM=ampicillin/sulbactam, LVX=levofloxacin.

MRSA clinical isolates [7] = assay: Broth dilution MIC in BHIG/X medium with subMIC BisEDT; type: cell-based, Staphylococcus aureus; conditions: 12 MRSA clinical isolates, BHIG/X, mean ± SD
Experimental: as §5
In this particular study, the data indicated synergy between BisEDT and cefepime (FIC<0.5), with many of the isolates at the breakpoint for sensitivity.

MRSA clinical isolates [8] = conditions: cited from earlier work
[9] = S. epidermidis ATCC 35984, BisEDT 0.0 μg/ml
[10] = S. epidermidis ATCC 35984, BisEDT 0.05 μg/ml
[11] = S. epidermidis S2400-1, BisEDT 0 μg/ml
[12] = S. epidermidis S2400-1, BisEDT 0.0 μg/ml
[13] = S. epidermidis S2400-1, BisEDT 0.05 μg/ml
[14] = S. epidermidis S2400-1, BisEDT 0.1 μg/ml
[15] = S. aureus ATCC 25923, BE = 0.2 μg/ml BisEDT
[16] = methicillin-resistant S. epidermidis
[17] = methicillin-susceptible S. epidermidis

Molecule	Δ (0.05 BE), biofilm prevention [1]	Biofilm Prevention (antibiotic concentration) ([1]; BisEDT 0 μg/ml)	Biofilm Prevention (antibiotic concentration) ([1]; BisEDT 0.05 μg/ml)	Biofilm Prevention (antibiotic concentration) ([1]; BisEDT 0.1 μg/ml)	Change of biofilm prevention concentration (BPC) (S. epidermidis biofilm)	Δ, MIC (S. epidermidis [2]; S. epidermidis ATCC 35984)	MIC (S. epidermidis [2]; [9])	MIC (S. epidermidis [2]; [10])	Δ (0.05 BE), MIC (S. epidermidis [2]; S. epidermidis S2400-1)	Δ (0.1 BE), MBC (S. epidermidis [2]; S. epidermidis S2400-1)	MIC (S. epidermidis [2]; [11])	MBC (S. epidermidis [2]; [12])	MIC (S. epidermidis [2]; [13])	MBC (S. epidermidis [2]; [14])	MIC (S. epidermidis [2]; [14])	Fold reduction of antibiotic MIC90 by BisEDT (MRSA)	FIC (MRSA)	Reduction in MBC with subMIC BisEDT (S. epidermidis [3])	Quantitative graft culture [4, 16]	Quantitative graft culture [4, 17]	also measured
CCOc1ccc2ccccc2c1C(=O)N[C@@H]1C(=O)N2[C@@H]1SC(C)(C)[C@@H]2C(=O)O [Nafcillin]	0.8	48 µg/mL	64 µg/mL	8 µg/mL	remained unaffected	3.2	16.00 µg/mL	5.00 µg/mL	0.89	2.00	171 µg/mL	256 µg/mL	192 µg/mL	128 µg/mL	68 µg/mL	over 4 fold	0.74	–	–	–	–
CO[C@H]1/C=C/O[C@@]2(C)Oc3c(C)c(O)c4c(O)c(c(/C=N/N5CCN(C)CC5)c(O)c4c3C2=O)NC(=O)/C(C)=C\C=C\[C@H](C)[C@H](O)[C@@H](C)[C@@H](O)[C@@H](C)[C@H](OC(C)=O)[C@@H]1C [Rifampin]	0.7	0.03 µg/mL	0.04 µg/mL	0.04 µg/mL	remained unaffected	1.5	0.021 µg/mL	0.014 µg/mL	0.75	0.43	0.03 µg/mL	0.03 µg/mL	0.04 µg/mL	0.07 µg/mL	0.04 µg/mL	–	–	remained largely unaffected	7.6 × 10^4 ± 2.1 × 10^4 cfu/cm^2	5.9 × 10^3 ± 1.8 × 10^3 cfu/cm^2	MIC change (growth inhibition) with BisEDT (S. epidermidis [3]; 0.1 μg/ml (0.5 μM) BisEDT): unaffected; Δ (S. aureus; MRSA S2446-3, BE = 0.2 μg/ml BisEDT): 1.0; Synergy (S. aureus; [15]): + (Synergy was also defined conventionally as ≧4-fold decrease in antibiotic concentration); Δ (S. aureus; [15]): 13.0; MIC (S. aureus; ATCC25923, S. aureus ATCC 25923, antibiotic alone, read-out: MIC): 0.033 µg/mL; MIC (S. aureus; ATCC25923, S. aureus ATCC 25923, with 0.2 μg/ml BisEDT, read-out: MIC + BE): 0.003 µg/mL; MIC (S. aureus; MRSA, MRSA S2446-3, antibiotic alone, read-out: MIC): 2.5 µg/mL; MIC (S. aureus; MRSA, MRSA S2446-3, with 0.2 μg/ml BisEDT, read-out: MIC + BE): 2.5 µg/mL
bismuth-1,2-ethanedithiol [BisEDT]	–	–	–	–	–	–	–	–	–	–	–	–	–	–	–	–	–	–	6.2 × 10^2 ± 2.3 × 10^2 cfu/cm^2	5.8 × 10^2 ± 0.9 × 10^2 cfu/cm^2	–
gentamicin	3.9	555 µg/mL	144 µg/mL	12 µg/mL	–	13.3	213.33 µg/mL	16.00 µg/mL	6.40	6.00	2048 µg/mL	1536 µg/mL	320 µg/mL	256 µg/mL	80 µg/mL	over 10 fold	0.6	4- to 16 fold	–	–	Synergy, biofilm prevention [1]: borderline; BPC ([5]; BisEDT 0 μg/mL): 81 ± 41 µg/mL; BPC ([5]; BisEDT 0.025 μg/mL): 63 ± 30 µg/mL; BPC ([5]; BisEDT 0.05 μg/mL): 53 ± 31 µg/mL; BPC ([5]; BisEDT 0.1 μg/mL): 33 ± 25 µg/mL; Antibiotic action on MRSA lawn with subMIC BisEDT [6]: enhanced antibiotic action; MIC (MRSA clinical isolates [7]; BisEDT 0 μg/mL): 81 ± 40 µg/mL; MIC (MRSA clinical isolates [7]; BisEDT 0.025 μg/mL): 60 ± 27 µg/mL; MIC (MRSA clinical isolates [7]; BisEDT 0.05 μg/mL): 58 ± 30 µg/mL; MIC (MRSA clinical isolates [7]; BisEDT 0.1 μg/mL): 48 ± 31 µg/mL; Fold reduction of BPC in presence of subMIC BisEDT (S. epidermidis biofilm; TSB + 2% glucose, 48 h): 4 fold; Synergy, MBC (S. epidermidis [2]; S. epidermidis S2400-1): + (Synergy was also defined conventionally as ≧4-fold decrease in antibiotic concentration); Synergy, MIC (S. epidermidis [2]; S. epidermidis S2400-1): + (Synergy was also defined conventionally as ≧4-fold decrease in antibiotic concentration); MIC Standards, R (resistance) (MRSA clinical isolates [8]; Standard MIC breakpoint for resistance): ≧16 μg/ml; MIC Standards, S (antibiotic sensitivity) (MRSA clinical isolates [8]; Standard MIC breakpoint for sensitivity): ≦4 μg/ml
